What is called IC50 is the midpoint of a concentration-inhibition curve. The term EC50 denotes the concentration needed to bring the measured effect to its halfway point.

The text below walks through data of article PMC3228261 (Chemistry (Weinheim an der Bergstrasse, Germany), 2011).

Where two headings read alike, the source gives them in different places.

One series concerns L-929 mouse fibroblasts. Description: MTT test, growth inhibition of L-929 mouse fibroblasts. It counts as cell-based. As to conditions: read-out: IC50 (L929), 5 d incubation, MTT assay. In general terms: Tetrazolium assays rely on reduction of a dye to a coloured formazan, in cell work by metabolically active cells.
Series [1] relates to human primary foreskin fibroblast (HFF) cells. The following applies: read-out: EC50 (HFF), viable cells after 72 h, triplicates.
Another series is described as follows: in vitro. As to conditions: human.
Series [2] has as its system human primary foreskin fibroblast (HFF) cells. Kind of series: cells. The following applies: 72 h, read-out: EC50 (HFF).

Take `CO[C@@H]1C(=O)O[C@H](C)[C@H](C)/C=C(\C)C[C@H](C)C(=O)N[C@@H](C)C(=O)N(C)[C@H](Cc2c[nH]c3ccccc23)C(=O)N[C@H]1c1ccc(O)cc1` [chon A_np (2a), chondramide A]: in the series with L-929 mouse fibroblasts, the IC50 came out at 56 ± 13 nM. In series [1], the EC50 was 118 ± 23 nM.

`CO[C@@H]1C(=O)O[C@H](C)[C@@H](C)C=C(C)C[C@H](C)C(=O)N[C@@H](C)C(=O)N(C)[C@H](Cc2c(Cl)[nH]c3ccccc23)C(=O)NC1c1ccc(O)cc1` (stereo partly drawn) [chon B_np (3), chondramide B]: in series [1], the EC50 is 44 ± 5 nM.

In turn, `C/C1=C\[C@H](C)C[C@H](C)OC(=O)C[C@H](c2ccc(O)cc2)NC(=O)[C@@H](Cc2c(Br)[nH]c3ccccc23)N(C)C(=O)[C@H](C)NC(=O)[C@@H](C)C1` [jasplakinolide_np (1), jasplakinolide] gave an EC50 at 72 h in the series “in vitro” of around 30 nM. Also, the EC50 in series [2] was 28 ± 4 nM.

`C/C1=C\[C@@H](C)[C@@H](C)OC(=O)C[C@H](c2ccc(O)cc2)NC(=O)[C@@H](Cc2c[nH]c3ccccc23)N(C)C(=O)[C@H](C)NC(=O)[C@@H](C)C1` [chon C_np (4), chondramide C]: the EC50 in series [1] worked out at 36 ± 7 nM.
